{"source": "paper PMC9311865", "about": "“Covalent Allosteric Inhibitors of Akt Generated Using a Click Fragment Approach” (Chemmedchem, 2022)", "key": {"Akt2": {"target": "T1, Akt2 (Homo sapiens, UniProt P31751)", "T1 construct": "purchased ProQinase", "experiment": "HTRF KinEASE assay, IC50 against Akt2", "type": "biochemical", "conditions": "wild-type Akt2; mean ± SD, n=3", "description": "(§1) The homogeneous time‐resolved fluorescence (HTRF®) KinEASE™ assay by Cisbio was used to determine the half‐maximal inhibitory concentration (IC50) values of the synthesised compounds against Akt1, Akt2 and Akt3 (Table 1).[26]\n(§2) The HTRF® KinEASE™ assay (Cisbio) was used to determine the IC 50 values of the synthesised\n(§3) al. (Akt2 and Akt3).1,5 The three wild-type Akt isoforms used were acquired from ProQinase."}, "KU-19-19 cells": {"test_system": "KU-19-19 cells", "experiment": "CellTiter-Glo Luminescent Cell Viability Assay, KU-19-19", "type": "cell-based", "conditions": "Homo sapiens, bladder cancer cell line, Akt1 E17K/E49K, mean ± SD, n=3", "protocol": "The potential in vitro antiproliferative activity of the synthesised target compounds was investigated against a number of cancer cell lines by the CellTiter‐Glo® Luminescent Cell Viability Assay (from Promega Corporation, USA, catalogue number: G7570). The half‐maximal effective concentrations (EC50) of these compounds were determined against the AN3‐CA, BT‐474, KU‐19‐19, MCF‐7, T‐47D and ZR‐75‐1 cell lines originating from various tissues, i. e., breast, endometrium and bladder (Table S1). […]\nThe CellTiter-Glo® Luminescent Cell Viability Assay from Promega was used for the cellular assays, performed as explained by Weisner et al.7,8 Information on the cancer cell lines are given in Table S1, the control compounds used in Figure S3 and the results in Table S2.\nTable S1. The cell lines used for the cellular assays, including what cancer type they are predominantly found in, and where the cell lines were acquired form.\nCell line Cancer type Acquired from AN3CA Endometrium ATCC (provided by Prof. Jan G. Hengstler at Leibniz-Institut für Arbeitsforschung Dortmund)\nKU-19-19 Bladder Deutsche Sammlung von Mikroorganismen und Zellkulturen […]\nBT-474 CLS Cell Lines Service (provided by Prof. Jan G. Hengstler at […] Leibniz-Institut für Arbeitsforschung Dortmund)"}, "AN3CA cells": {"test_system": "AN3CA cells", "experiment": "CellTiter-Glo Luminescent Cell Viability Assay, AN3CA", "type": "cell-based", "conditions": "Homo sapiens, AN3-CA; endometrium cancer cell line; mean ± SD, n=3; read-out: EC50 AN3CA"}, "wild-type Akt1 [1]": {"target": "T2, wild-type Akt1 (Homo sapiens, UniProt P31749)", "T2 construct": "made in house", "set-up": "method as in earlier work", "conditions": "ref 6a; cited from earlier work"}, "MCF-7 cells": {"test_system": "MCF-7 cells", "experiment": "CellTiter-Glo Luminescent Cell Viability Assay, MCF-7", "type": "cell-based", "conditions": "Homo sapiens, MCF7; breast cancer cell line; mean ± SD, n=3; read-out: EC50 MCF‐7"}, "wild-type Akt1 [2]": {"target": "T2, wild-type Akt1", "experiment": "LC-MS identification of covalent binders after co-incubation with Akt1", "type": "binding", "conditions": "co-incubation with Akt1, Figure S1", "excerpt": "2. Evaluation results … 4\n4. Molecular Modelling … 57\nindicated covalent binding."}, "ZR-75-1 cells": {"test_system": "ZR-75-1 cells", "experiment": "CellTiter-Glo Luminescent Cell Viability Assay, ZR-75-1", "type": "cell-based", "conditions": "Homo sapiens, ZR-75-1; breast cancer cell line; mean ± SD, n=3; read-out: EC50 ZR‐75‐1"}, "T47D cells": {"test_system": "T47D cells", "experiment": "CellTiter-Glo Luminescent Cell Viability Assay, T47D", "type": "cell-based", "conditions": "Homo sapiens, breast cancer cell line, mean ± SD, n=3"}, "Akt1 [3]": {"target": "T3, Akt1 (Homo sapiens, UniProt P31749)", "T3 sequence (P31749 whole entry)": "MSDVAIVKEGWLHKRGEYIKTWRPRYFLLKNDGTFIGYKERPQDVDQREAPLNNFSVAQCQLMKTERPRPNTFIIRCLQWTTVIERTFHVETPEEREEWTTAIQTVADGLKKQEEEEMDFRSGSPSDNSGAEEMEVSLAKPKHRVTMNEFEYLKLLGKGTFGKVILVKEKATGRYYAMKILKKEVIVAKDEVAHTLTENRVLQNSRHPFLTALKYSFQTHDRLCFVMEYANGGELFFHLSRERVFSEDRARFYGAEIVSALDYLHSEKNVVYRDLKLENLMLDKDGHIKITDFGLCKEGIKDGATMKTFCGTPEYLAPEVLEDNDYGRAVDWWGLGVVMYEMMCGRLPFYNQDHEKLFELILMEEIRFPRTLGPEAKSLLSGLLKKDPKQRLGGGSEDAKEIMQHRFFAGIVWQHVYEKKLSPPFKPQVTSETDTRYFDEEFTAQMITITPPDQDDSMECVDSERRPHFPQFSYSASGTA", "experiment": "Kinetic analysis with HTRF KinEASE (time-dependent IC50), kinetic parameters of inactivation", "type": "biochemical", "set-up": "purchased ProQinase", "conditions": "mean ± SD, n=3", "description": "The kinetic parameters of inactivation, namely the inhibition constant (K I) and the rate constant of enzyme inactivation (k inact), are therefore preferentially used to describe irreversible inhibitors.[28] K I is defined as the concentration of inhibitor required for half of the maximum potential rate of covalent bond formation, while k inact is defined as the maximum potential rate of covalent bond formation.[29] The ratio of k inact over K I, k inact/K I, accounts for both the potency of the inhibitor (K I) and the maximum potential rate of covalent bond formation (k inact) and thus represents the second‐order rate constant describing the efficiency of covalent complex formation.[29] Using a protocol published by Krippendorff et al., K I and k inact can be directly estimated from time‐dependent IC50 determinations by kinetic analysis with HTRF® KinEASE™.[28]\nUsing a protocol published by Krippendorff et al., KI, kinact and kinact/KI could be directly\nestimated from time-dependent IC50 determinations by kinetic analysis with HTRF® KinEASE™,"}, "BT-474 cells": {"test_system": "BT-474 cells", "experiment": "CellTiter-Glo Luminescent Cell Viability Assay, BT-474", "type": "cell-based", "conditions": "Homo sapiens, BT-474; breast cancer cell line; mean ± SD, n=3; read-out: EC50 BT‐474"}, "Akt3": {"target": "Akt3 (Homo sapiens, UniProt Q9Y243)", "sequence (Q9Y243 whole entry)": "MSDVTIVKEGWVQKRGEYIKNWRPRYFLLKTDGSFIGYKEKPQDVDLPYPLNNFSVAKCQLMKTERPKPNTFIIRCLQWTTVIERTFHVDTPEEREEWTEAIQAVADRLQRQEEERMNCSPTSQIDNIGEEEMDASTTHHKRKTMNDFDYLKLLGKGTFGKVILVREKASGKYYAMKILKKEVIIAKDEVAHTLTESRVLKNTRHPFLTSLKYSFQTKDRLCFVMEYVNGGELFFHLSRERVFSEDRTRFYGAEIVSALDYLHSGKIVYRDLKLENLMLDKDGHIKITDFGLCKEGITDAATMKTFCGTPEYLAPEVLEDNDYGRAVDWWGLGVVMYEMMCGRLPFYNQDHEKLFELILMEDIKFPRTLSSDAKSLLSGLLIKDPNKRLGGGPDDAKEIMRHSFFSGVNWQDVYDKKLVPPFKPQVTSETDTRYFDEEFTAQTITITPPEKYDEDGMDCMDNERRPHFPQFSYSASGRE", "experiment": "HTRF KinEASE assay, IC50 against Akt3", "description": "as §1, §2, §3"}, "Akt1 [4]": {"target": "T3, Akt1", "experiment": "HTRF KinEASE assay, IC50 against Akt1", "conditions": "Akt1; repeated in Table 2 for comparison; mean ± SD, n=3", "description": "as §1, §2, §3"}}}
{"smiles": "C=CC(=O)Nc1cccc(-c2cn(C3CCN(Cc4ccc(-c5nc6ccccn6c5-c5ccccc5)cc4)CC3)nn2)c1", "note": "[Compound 3, N ‐[3‐(1‐{1‐[4‐(3‐Phenylimidazo[1,2‐a]pyridin‐2‐yl)benzyl]piperidin‐4‐yl}‐1H‐1,2,3‐triazol‐4‐yl)phenyl]acrylamide]", "values": [{"measurement": "IC50", "setting": "Akt2", "result": "> 20", "unit": "µM"}, {"measurement": "EC50", "setting": "KU-19-19 cells", "result": "12.4 ± 2.88", "unit": "µM"}, {"measurement": "EC50", "setting": "AN3CA cells", "result": "4.75 ± 1.54", "unit": "µM"}, {"measurement": "covalent binding to Akt1, previously identified", "setting": "wild-type Akt1 [1]", "result": "covalent binder"}, {"measurement": "EC50", "setting": "MCF-7 cells", "result": "4.29 ± 1.13", "unit": "µM"}, {"measurement": "covalent binding to Akt1 (mass increase by LC-MS)", "setting": "wild-type Akt1 [2]", "result": "quantitative protein labelling"}, {"measurement": "EC50", "setting": "ZR-75-1 cells", "result": "2.17 ± 0.517", "unit": "µM"}, {"measurement": "EC50", "setting": "T47D cells", "result": "4.07 ± 1.61", "unit": "µM"}, {"measurement": "Ki", "setting": "Akt1 [3]; inhibition constant of inactivation", "result": "0.497 ± 0.107", "unit": "µM"}, {"measurement": "k inact", "setting": "Akt1 [3]", "result": "0.071 ± 0.006", "unit": "min⁻¹"}, {"measurement": "k inact/K I", "setting": "Akt1 [3]", "result": "2000 ± 1000", "unit": "M⁻¹ s⁻¹"}, {"measurement": "EC50", "setting": "BT-474 cells", "result": "8.27 ± 0.862", "unit": "µM"}, {"measurement": "IC50", "setting": "Akt3", "result": "> 20", "unit": "µM"}, {"measurement": "IC50", "setting": "Akt1 [4]", "result": "0.372 ± 0.0485", "unit": "µM"}]}
